Test results: patent publication US20200077655A1, “Use of an Acyclic Picolinamide Compound as a Fungicide for Control of Phytopathogenic Fungi in Orchard, Vineyard and Plantation Crops” (Dow AgroSciences LLC, priority 2017, published 2020)

Key:
Assay type in all cases: in vivo
[1] = test system: Monilinia fructicola (MONIFC); experiment: Field microplot assessment on brown rot on apricots; settings: field grown apricots
Source text: A field trial assessing the utility of Compound I on rot diseases of stone fruits was done using apricots in a microplot method, part of an experimental trial designed as a randomized complete block with four replications. In a microplot method, two mature fruits on a single branch or cluster of fruits were selected for each replication (for a total of 10 replications) instead of using an entire replication. Colored flagging identified treatments. Fungicidal treatments containing Compound I, applied in a 5% EC formulation and tank mixed with an adjuvant (Trycol, 50% w/w at 0.2% v/v), were sprayed on apricots (PRNAR) at rates of 50, 100, and 150 grams of active ingredient per hectare (g ai/ha). The applications to the selected mature apricots were done at 7 days before harvest using a hand held manual spray bottle at a water volume of 500 L/ha. One day after application, a ZipLoc plastic bag was placed over the fruit or fruit cluster and an inoculation mix of MONIFC (Rhizopus was from natural population present in the orchard) was sprayed inside covering the fruits. The plastic bags were removed after 24 hours. At harvest, the fruits were collected in the field and placed in plastic Tupperware containers. 150 mL of de-ionized water was poured in the bottom of the Tupperware containers and the fruits were sprayed with a light mist of water. The containers were brought to the lab, enclosed in a large trash bag to keep the humidity high, and incubated on a lab bench at approximately 23° C. Visual disease incidence was assessed during the trial at 9 and 16 days after application. Area under the disease progress curve (AUDPC) was calculated for each plot using the sets of recorded incidence data. Relative AUDPC (% control based on AUDPC) was calculated as percent of the nontreated control.

[2] = test system: Botrytis cinerea (BOTRCI); experiment: Field assessment of gray mold on strawberry
Source text: On strawberry: A fungicidal treatment containing Compound I, applied in a 5% EC formulation and tank mixed with an adjuvant (Trycol, 50% w/w at 0.2% v/v), was sprayed on strawberry plants (FRAAN, Candonga variety) at rates of 50, 150 and 200 grams of active ingredient per hectare (g ai/ha). The trial was based on four broadcast applications during the growing season at approximately 10 day intervals with grey mold inoculation after the last application (plant growth stage B85). The treatment was part of an experimental trial designed as a randomized complete block with four replications and a plot size of approximately 2.0×5.0 m. Formulations of compound I were applied at water volume of 800 L/ha, using a backpack plot sprayer (BKPCKENG, solo 433; HCSOLID—Albutz ATR80 Yellow nozzle) and pressurized at 300 kPa.
Disease severity was recorded as a percentage of fruit incidence of damaged fruits on a random sample of 100 fruits per plot. Gray mold infection was assessed twice at 10 days after the third application (10DAAC) and 10DAAD. Area under the disease progress curve (AUDPC) was calculated for each plot using the sets of recorded incidence data. Relative AUDPC (% control based on AUDPC) was calculated as percent of the nontreated control.

[3] = test system: Botrytis cinerea (BOTRCI); experiment: Strawberry shelf-life simulation, gray mold
Source text: Strawberry shelf-life simulation (3 repetitions): Fungicidal treatments were applied to strawberry plants grown in a shade house to obtain healthy fruits. Once matured, the healthy fruits were harvested and transferred to a laboratory for a shelf-simulation study. In the laboratory, the fruits were bleach decontaminated to remove residual chemical residue. Compound I, applied in a 5% EC formulation and mixed with an adjuvant (Trycol, 50% w/w at 0.2% v/v), was sprayed on the healthy strawberries at rates of 50, 100 and 150 grams of active ingredient per hectare (g ai/ha) and allowed to dry completely. The fruits were then inoculated with gray mold and incubated on a laboratory bench at 20° C. Disease severity was recorded as a percentage of fruit infection assessments. Gray mold infection was assessed twice after the initial inoculation, 4 days after infection (4DAI) and 6DAI. Area under the disease progress curve (AUDPC) was calculated for each repetition using the sets of recorded severity data. Relative AUDPC (% control based on AUDPC) was calculated as percent of the nontreated control.

[4] = test system: Podosphaera clandestina (PODOCL); experiment: Field assessment of powdery mildew in cherry; settings: cherry leaves, 14 DAA5
Source text: A fungicidal treatment containing Compound I, applied in an SC formulation (MSO built-in) and tank mixed with an adjuvant (Agnique BP-420, 50% w/w at 0.2% v/v or Adsee C80W 80%), was sprayed on cherry trees (PRNAV, Sentennial variety) at growth stage (mid petal fall, flowers fading, petals falling; BBCH 67-85) at rates of 60, 120, 150, and 180 g ai/ha. The experimental plots were run with natural infestation. The treatment was part of an experimental trial designed as a randomized complete block (RCB) with four replications and a plot of approximately 4×6 m. Compound I was applied at water volume of 1000 L/ha, using an Airblast sprayer.
Disease severity (percentage of visual diseased foliage (leaf) on whole plot) and disease incidence were assessed 14 days after application 5 (14 DAA5). The disease infection was recorded. Disease was evaluated as percent of leaves with disease (incidence), percent diseased leaf area (severity, a disease index calculated (percent (%) incidence×percent (%) severity) and then percent (%) control was calculated using Abbotts from the disease index values. Results are given in Table 12.

With `COc1ccnc(C(=O)N[C@@H](C)C(=O)O[C@@H](C)C(c2ccc(F)cc2)c2ccc(F)cc2)c1OC(C)=O` [Compound I, (S)-1,1-bis(4-fluorophenyl)propan-2-yl (3-acetoxy-4-methoxypicolinoyl)-L-alaninate] the “Percent control (AUDPC) from fruit incidence, MONIFC” value (shortened to “Percent control (AUDPC) … MONIFC”) ([1]; 50 g ai/ha) was “B (51-75)”, the “Percent control (AUDPC) … MONIFC” value ([1]; 100 g ai/ha) was “B (51-75)” and the “Percent control (AUDPC) … MONIFC” value ([1]; 150 g ai/ha) was “B (51-75)”. For the same compound, the “Percent control (AUDPC) from fruit infection assessments” value ([2]; 50 g ai/ha) was “B (51-75)”, the “Percent control (AUDPC) from fruit infection assessments” value ([2]; 150 g ai/ha) was “A (76-100)” and the “Percent control (AUDPC) from fruit infection assessments” value ([2]; 200 g ai/ha) was “A (76-100)”. For the same compound, the “Percent control (AUDPC) from fruit severity assessments” value ([3]; 50 g ai/ha) was “B (51-75)”, the “Percent control (AUDPC) from fruit severity assessments” value ([3]; 100 g ai/ha) was “A (76-100)” and the “Percent control (AUDPC) from fruit severity assessments” value ([3]; 150 g ai/ha) was “A (76-100)”. For the same compound, the “Calc Percent Control of PODOCL” value ([4]; 60 g ai/ha, Agnique BP420, 240 mL/ha) was 64.6%, the “Calc Percent Control of PODOCL” value ([4]; 60 g ai/ha, MSO, 120 g ai/ha) was 63.3% and the “Calc Percent Control of PODOCL” value ([4]; 120 g ai/ha, Adsee C80W 80%, 300 g ai/ha) was 44.4%. The “Calc Percent Control of PODOCL” value ([4]; 120 g ai/ha, Agnique BP420, 480 mL/ha) was 46.9%, the “Calc Percent Control of PODOCL” value ([4]; 120 g ai/ha, MSO, 240 g ai/ha) was 37.9% and the “Calc Percent Control of PODOCL” value ([4]; 150 g ai/ha, Agnique BP420, 600 mL/ha) was 44.4%. For the same compound, the “Calc Percent Control of PODOCL” value ([4]; 150 g ai/ha, MSO, 300 g ai/ha) was 91.7%, the “Calc Percent Control of PODOCL” value ([4]; 180 g ai/ha, Agnique BP420, 720 mL/ha) was 48.7% and the “Calc Percent Control of PODOCL” value ([4]; 180 g ai/ha, MSO, 360 g ai/ha) was 89.1%.
